Patent publication US4738954A, “Novel N^6 -substituted-5'-oxidized adenosine analogs” (Warner-Lambert Company, priority 1985, dated 1988)

Tests used:
mouse locomotor activity = assay: Mouse Activity and Screen Test Procedure (MAST): locomotor activity; type: in vivo, Swiss-Webster male mice; details: mice, one hour
Description: The compounds of the invention are new chemical substances which are useful as pharmaceutical agents for the treatment of psychoses. The antipsychotic activity of representative compounds of the invention was established by the Mouse Activity and Screen Test Procedure (MAST) described below.
Nine unfasted Swiss-Webster male mice weighing 20-30 g are equally divided into three groups for each drug dose to be tested. That is, data for each dose level was generated by three separate groups of three mice each.
A minimum of three dose levels (10, 30, and 100 mg/kg) are tested for each drug. Treatments are administered intraperitoneally one hour prior to testing. All dosages are calculated as parent compound and given in volumes of 10 ml/kg. Compounds are dissolved or suspended in 0.2% Methocel. Control animals are injected with Methocel.
A two part testing procedure is started one hour postinjection. First, the screen test (ST) is performed (see Pharmac. Biochem. Behav. 6, 351-353, 1977). Briefly this test consists of placing mice on individual wire screens which are then rotated 180 degrees at the start of a 60 second observation period. The number of mice falling off the inverted screen is recorded.
Immediately following the screen test, the final phase of testing is initiated by placing each group of three mice in one actophotometer (Life Sciences, 22, 1067-1076, 1978). The actophotometer consists of a cylindrical chamber whose center is occupied by another cylinder which contains the illumination for six photocells located on the perimeter of the chamber. Six light-beam interruptions equal one count. Locomotor activity is recorded by computer at ten minute intervals for 60 minutes.
The data obtained from the screen test are expressed as percent of mice falling off the screen. Data derived from locomotor activity of drug treated mice are compared to the activity of vehicle treated animals and are expressed as percent inhibition of spontaneous locomotion. All percentages reported for inhibition of locomotion (LI) are based upon data accumulated for one hour. Both phases of testing are graded: A=60-100%; C=31-59%; and N=0-30%. An overall dose rating is obtained by the following criteria:
LAD refers to the lowest dose at which an A rating is achieved. […] Utilizing this procedure, an overall dose rating of A was obtained for the noted compound at the indicated dose. The compounds are identified in the Examples.

[1] = system: mean arterial blood pressure and heart rate in the conscious rat; assay: Antihypertensive evaluation (AHP3): aortic blood pressure and heart rate from conscious rats; type: in vivo
Description: ANTIHYPERTENSIVE EVALUATION (AHP3)
This test procedure is described in the following paragraphs.
A Method for the Direct Monitoring of Aortic Blood Pressure and Heart Rate from Conscious Rats
The continous monitoring of pulsatile blood pressure (BP) from unrestrained conscious rats surgically equipped with polyethylene cannulas was accomplished by means of a computer assisted data capture scheme (CADCS). The basic elements of the methodology are the cannulation procedure and the CADCS.
Rats were anesthetized with Telazol (1:1 tiletamine HCl and zolazepam HCl); 20-40 mg/kg IM and the descending aorta exposed via a midline incision. Cannulas fabricated from polyethylene tubing were inserted into the aorta via an undersized puncture hole below the renal arteries. The puncture hole was made by a 23 G disposable needle with a section of the aorta clamped off above and below the puncture site. The cannulas, consisting of a PE100 (0.86 mm ID) body and a PE50 (0.58 mm ID) tip, were attached to a trocar, inserted through the psoas muscle, and passed subcutaneously along the midline of the back and externalized between the ears. The cannulas were anchored to the psoas muscle and between the scalulae (3-0 green braided suture). The midline incision was closed in two steps (muscle first, skin second) using contiuous over-and over sutures (4-0 chronic). Each rat was then given penicillin 30,000 units subcutaneously (Penicilling G Procaine Sterile Suspension).
The rats were fitted with a harness-spring-swivel assembly designed to protect the cannula and to provide the rat relative freedom of movement. The harnesses were fabricated from nylon hook and loop tape cemented to a metal plate to which spring wires (18-8 stainless steel) were attached to brass swivels. Each polyethylene cannula was channeled through a spring and connected through a swivel to a pressure transducer (Model P23Gb; Statham Instruments; Hato Rey, Puerto Rico) and an infusion pump (Sage model 234-7; Orion Research, Cambridge, MA) by means of PE100 tubing. While on test, each rat received a continuous slow infusion of heparinized saline solution (approximately […] or 40 units of heparin per 24 hours period) to prevent clot formation. Additional "flushes" of the cannula with heparinized saline were carried out when the aortic pluse pressure (systolic minus diastolic) was less than 25 mm Hg.
The pulsatile blood pressure and heart rate of each of 32 rats was monitored every minute by means of two in-laboratory microcomputers communicating directly with a data concentrator computer. The data were first stored on the data concentrator disk and then transferred to a magnetic tape for analysis and report generation by the main research computer. […]

| SMILES | Inhibition of mouse locomotor activity (mouse locomotor activity; 3 mg/kg IP) [%] | Inhibition of mouse locomotor activity (mouse locomotor activity; 10 mg/kg IP) [%] | Inhibition of mouse locomotor activity (mouse locomotor activity; 30 mg/kg IP) [%] | MAP (mean arterial pressure) change ([1]; 10 mg/kg, hour 5, conscious rat) [%] | Inhibition of mouse locomotor activity (mouse locomotor activity; 0.1 mg/kg IP) [%] | Inhibition of mouse locomotor activity (mouse locomotor activity; 0.3 mg/kg IP) [%] | Inhibition of mouse locomotor activity (mouse locomotor activity; 1 mg/kg IP) [%] | HR (heart rate) change ([1]; 1 mg/kg, hour 5, conscious rat) [%] | MAP (mean arterial pressure) change ([1]; 1 mg/kg, hour 5, conscious rat) [%] | Inhibition of mouse locomotor activity (mouse locomotor activity; 0.03 mg/kg IP) [%] | Inhibition of mouse locomotor activity (mouse locomotor activity; 0.01 mg/kg IP) [%] | MAP (mean arterial pressure) change ([1]; 10 mg/kg, hour 3, conscious rat) [%] |
| --- | --- | --- | --- | --- | --- | --- | --- | --- | --- | --- | --- | --- |
| CCOC(=O)[C@H]1O[C@@H](n2cnc3c(NCC(c4ccccc4)c4ccccc4)ncnc32)[C@H](O)[C@@H]1O [Example 5, N6-(2,2-diphenylethyl)-5-adenosine-5'-ethylcarboxylate] | -4 | 0 | 2 | 0 | – | – | – | – | – | – | – | – |
| CCNC(=O)[C@H]1O[C@@H](n2cnc3c(NCC(c4ccccc4)c4ccccc4)ncnc32)[C@H](O)[C@@H]1O [Example 3, N^6-(2,2-diphenylethyl)-adenosine-5'-ethylcarboxamide] | 92 | 90 | 93 | – | 20 | 1 | 72 | 0 | 0 | – | – | – |
| CCNC(=O)[C@H]1O[C@@H](n2cnc3c(NCc4cccc5ccccc45)ncnc32)[C@H](O)[C@@H]1O [Example 6, N-6-Naphthylmethyladenosine-5'-ethylcarboxamide] | 88 | 90 | – | – | 30 | 82 | 87 | – | – | 21 | – | – |
| CCNC(=O)[C@H]1O[C@@H](n2cnc3c(N[C@H](C)Cc4ccccc4)ncnc32)[C@H](O)[C@@H]1O [Example 1, (R)-N-6-[(2-phenyl-1-methyl)ethyl]-adenosine-5'-ethylcarboxamide] | 99 | 99 | 99 | – | 91 | 75 | 92 | – | – | 18 | -8 | – |
| CCOC(=O)[C@H]1O[C@@H](n2cnc3c(NC4CC5CCC4C5)ncnc32)[C@H](O)[C@@H]1O (relative stereo) [Example 8, N-6-Norbornyl-adenosine-5'ethylcarboxylate] | – | – | – | – | – | – | – | – | – | – | – | 0 |
